Blank lines part the entries; values can stand above or below the molecule they belong to.
Experiments:
[1] = tested on: procollagen type I; assay: Promotion of collagen biosynthesis in fibroblast, procollagen type I ELISA; format: cell-based; settings: 10 ng/ml, 24 hours, non-treated group = 100
Procedure: In order to investigate the promoting effect of the collagen biosynthesis, the enzyme-treated saponin fraction derived from the root of camellia sinensis of the present invention was determined in comparison with TGF-β. At first, fibroblast was seeded as 10^5 cells per a well in 24-well plate and cultured until growing to about 90% confluency. After incubating it with non-serum DMEM medium for 24 hours, it was treated with 10 ng/ml of the saponin fraction derived from the root of camellia sinensis of the above Example 1 and TGF-β dissolved in the non-serum medium, respectively and incubated in CO2 incubator for 24 hours. The supernatant of them was taken and it was examined as to whether procollagen was increased or not by using procollagen type I ELISA kit. The result is represented in Table 8, and the ability for synthesizing the collagen was compared by considering that the non-treated group was 100.

[2] = tested on: collagenase (MMP-1); assay: Collagenase (MMP-1) generation in human fibroblast, ELISA; format: cell-based; settings: saponin fraction 30 μg/ml for 24 hours, non-treated group = 100
Procedure: Fibroblast of a human was placed in 96-well plate (96-well microtiter plate) with Dulbecco's Modified Eagle's Media (DMEM) containing 2.5% fetal bovine serum to be 5,000 cells/well, and was cultured at 5% CO2, at the temperature of 37° C. of incubator to grow to about 70˜80% confluency. The saponin fraction derived from the root of Camellia sinensis of the above Example 1 was treated for 24 hours in a concentration of 30 μg/ml, and then the cell culture was collected.
The degree of the collagenase generation for the cell culture collected by using the commercially available collagenase determination Apparatus (AmershamPharmacia Corporation in U.S.A., Catalog #: RPN 2610) was determined. At first, the collected cell culture was placed in 96-well plate evenly covered with the first collagenase antibody and antigen-antibody reaction was performed in thermostat container for three hours. […]
The absorbance of 96-well plate representing yellow color was determined by using Absorptiometer at 405 nm, the degree of collagenase synthesis was calculated by the below Mathematical formula 2, and the result was shown in Table 2 as below. In this case, the absorbance for the reaction of the cell culture collected from the group without treating with the composition was used as the control.

[3] = tested on: B16/F10 melanoma cell; assay: Inhibition of melanin generation in B16/F10 melanoma cell; format: cell-based; settings: sample comprising 0.001 wt % of test material, cultured 3 days
Procedure: The sample comprising 0.001 wt % of the saponin fraction derived from the root of camellia sinensis of the above Example 1 and kojic acid, respectively, as the test material, was added to the culture of B16/F10 melanoma cell (Korean cell strain bank) at the constant concentration and cultured for 3 days, washed with PBS, dissolved with 1N NaOH and the absorbance was determined at 405 nm. At this time, the cell added no test material was considered as the control and the degree for hindering the melanin generation of each test material was determined by comparing the contents of melanin in the control. The inhibition rate of melanin generation was calculated according to mathematical formula 6 as below and its result was represented in Table 22.

[4] = biological target: T1, 5α-reductase (Homo sapiens, UniProt P31213); assay: Inhibition of 5α-reductase activity, [14C]testosterone to DHT in HEK293-5αR2 cell; format: cell-based; settings: 2 hours, negative control 48.0
T1 construct: 3xFLAG; expressed in transfected cells; host or cells: HEK293
T1 sequence (P31213 1-254): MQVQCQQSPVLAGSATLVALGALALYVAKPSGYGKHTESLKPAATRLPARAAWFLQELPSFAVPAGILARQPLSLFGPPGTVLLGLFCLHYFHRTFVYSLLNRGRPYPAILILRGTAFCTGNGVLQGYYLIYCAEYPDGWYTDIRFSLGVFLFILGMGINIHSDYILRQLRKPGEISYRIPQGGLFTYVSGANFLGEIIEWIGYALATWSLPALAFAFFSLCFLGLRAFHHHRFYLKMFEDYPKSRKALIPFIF
Procedure: In order to identify the effect for inhibiting 5α-reductase activity, a ratio of [^14C]testosterone changed into [^14C]dihydrotestosterone (DHT) in HEK293-5αR2 cell was determined. […] The next day, new medium with the enzyme substrate and inhibitor was changed. 0.05 μCi [^14C]testosterone (Amersham Pharmacia biotech, UK) as the substrate of the medium was used.
Thereafter, the culture media was collected and steroid was extracted with 800 μl of ethylacetate and then, after separating the organic solvent layer of the top and drying it, the remaining residue was dissolved with 50 μl of ethylacetate and developed it by using ethylacetate-hexane (1:1) as a solvent on Silica plastic sheet kieselgel 60 F254.

[5] = tested on: Tyrosinase; assay: Tyrosinase hinderance effect; format: biochemical, Mushroom; settings: 37° C., 10 minutes, absorbance 475 nm; concentration not given
Procedure: Tyrosinase enzyme is that extracted from Mushroom and used the product of SIGMA Company. At first, tyrosine being the substrate was dissolved in the distilled water to make 0.3 mg/ml of solution and 1.0 ml of each solution was put in the tube, and then, 1.0 ml of potassium-phosphate buffer solution (0.1 mol concentration, pH 6.8) and 0.7 ml of the distilled water were added.
Each sample liquid, 0.2 ml, which was prepared by mixing the enzyme-treated saponin fraction derived from the root of camellia sinensis of the above Example 1 of the present invention in ethanol solution in the proper concentration was put in the reaction liquid and then was reacted in 37° C. incubator for 10 minutes. At this time, the control was prepared by adding only 0.2 ml of solution, instead of each of sample liquid, ascorbic acid was used as the positive control. 0.1 ml of 2500 units/ml tyrosinase solution was added to the reaction liquid and reacted in 37° C. incubator for 10 minutes. The tube with the reaction liquid was put in the ice water to stop the reaction by quenching and the absorbance at the wavelength of 475 nm was determined with the photoelectric spectrophotometer, and then the result was represented in the below Table 21. Each of tyrosinase hinderance effect was calculated by the below mathematical formula 5.

[6] = biological target: T2, elastase (Sus scrofa, UniProt P00772); assay: Inhibition of elastase activity; format: biochemical; settings: EGCG 250 μM as positive control; 25° C., 15 minutes, absorbance 415 nm
T2 construct: purchased Sigma Aldrich E0127
T2 sequence (P00772 27-266): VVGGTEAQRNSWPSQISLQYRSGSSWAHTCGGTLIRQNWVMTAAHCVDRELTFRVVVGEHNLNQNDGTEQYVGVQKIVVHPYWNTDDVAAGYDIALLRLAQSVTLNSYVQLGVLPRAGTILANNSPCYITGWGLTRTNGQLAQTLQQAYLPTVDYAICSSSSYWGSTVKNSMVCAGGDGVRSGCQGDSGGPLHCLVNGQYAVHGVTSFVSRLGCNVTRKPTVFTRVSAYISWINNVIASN
Procedure: An ability hindering elastase activity of the enzyme-treated saponin fraction derived from the root of Camellia sinensis was determined in comparison with EGCG. The elastase and substrate as used were commercially purchased from Sigma Aldrich in […]0127), and the saponin fraction was used as the enzyme-treated saponin fraction derived from the root of Camellia sinensis roots as obtained from Example 1. 50 μL of Test material as represented in the below Table 1 and 20 μg/mL elastase·50 μL of solution of type III were mixed with that prepared with […] Tris-HCl buffer (pH 8.0) in 96-well plate. 250 μM of EGCG was used as a positive control, and non-treated group as a negative control used the distilled water. […] After completing the reaction, the absorption at the wavelength of 415 nm was determined. […] A: No addition of the experimental sample, Absorbance at the wavelength of 415 nm with the addition of enzyme B: No addition of the experimental sample, Absorbance at the wavelength of 415 nm without the addition of enzyme C: Addition of the experimental sample, Absorbance at the wavelength of 415 nm with the addition of enzyme D: Addition of the experimental sample, Absorbance at the wavelength of 415 nm without the addition of enzyme

Molecule: TGF-β: comparison substance for collagen biosynthesis
- Ability for synthesizing collagen (%) [1]: 183.5%

Molecule: CC1=C(/C=C/C(C)=C/C=C/C(C)=C/C(=O)O)C(C)(C)CCC1 [Retinoic acid]
- Degree of the expression (%) of collagenase [2]: 75%

Molecule: O=c1cc(CO)occ1O [Kojic acid]
- Inhibition rate of melanin generation (%) [3]: 53%

Molecule: CC(C)(C)NC(=O)[C@H]1CC[C@H]2[C@@H]3CC[C@H]4NC(=O)C=C[C@]4(C)[C@H]3CC[C@]12C [Positive control, finasteride]
- Conversion rate (%) of testosterone into dihydrotestosterone [4]: 27.6%

- Tyrosnase hinderance rate (%) [5]: 52%
Molecule: O=C1O[C@H]([C@@H](O)CO)C(O)=C1O [Ascorbic acid]

- Degree of the inhibiton (%) of elastase activity [6]: 65%
Molecule: O=C(O[C@@H]1Cc2c(O)cc(O)cc2O[C@@H]1c1cc(O)c(O)c(O)c1)c1cc(O)c(O)c(O)c1 [EGCG]

From patent publication US10022415B2, “External composition for skin containing an enzyme-treated saponin fraction derived from the root of Camellia sinensis” (AMOREPACIFIC CORPORATION, priority 2014, dated 2018)
